In US12146004B2, “Polymyxin compounds and uses thereof” (priority 2014, dated 2024):
≈ marks a conversion by molar mass, not a printed value. Read-outs that look alike come from different tables or passages of the source. Bridge positions count the residues as written; N and C are the ends. Square brackets hold non-standard residues; d marks the D form. Peptide text beside a SMILES is read from it. * marks the point of attachment. X16 = Cc1cc(C)cc(CO[C@@H](CCN)C(=O)*)c1; X27 = NCCC(C(=O)*)c1cccc(Cl)c1; dCha = N[C@H](CC1CCCCC1)C(=O)O; X28 = NCCC(C(=O)*)c1ccccc1Cl; X4 = CC(C)CC1CNCC(C(=O)*)C1; Dab = NCC[C@H](N)C(=O)O; Dap = NC[C@H](N)C(=O)O

How the values were obtained:
Assay type in all cases: cell-based
[1] = test system: Acinetobacter baumannii
Procedure: (§1) To evaluate the potency and spectrum of the compounds, susceptibility testing was performed against up to nine strains of each of the Gram negative pathogens, Escherichia coli, Pseudomonas aeruginosa, Klebsiella pneumoniae and Acinetobacter baumannii.
(§2) The values in Table 2 are MIC (μg/mL) against strains of E. coli, K. pneumoniae, P. aeruginosa and A. baumanii, including strains which show elevated MICs to Polymyxin.
(§3) The values in Table 2A are MIC (μg/mL).
(§4) The in vitro activity of compounds 26 and C7 (FADDI-02) against resistant bacterial strains was compared. The resistant strains included including Escherichia coli, Pseudomonas aeruginosa, Klebsiella pneumoniae and Acinetobacter baumannii strains. The data is provided in Table 2C, where the strains are identified. The values in Table 2 are MIC (μg/mL).

[2] = test system: Escherichia coli
Procedure: as §1, §2, §3, §4

[3] = test system: Klebsiella pneumoniae
Procedure: as §1, §2, §3, §4

[4] = test system: Pseudomonas aeruginosa
Procedure: as §1, §2, §3, §4

MIC A. baumanii 053 [1]	MIC A. baumanii 056 [1]	MIC A. baumanii ATCC BAA-747 [1]	MIC E. coli 058 [2]	MIC E. coli 061 [2]	MIC E. coli ATCC 25922 [2]	MIC K. pneumoniae 063 [3]	MIC K. pneumoniae 065 [3]	MIC P. aeruginosa 068 [4]	MIC P. aeruginosa 070 [4]	MIC A. baumanii NCTC 13424 [1]	MIC K. pneumoniae ATCC 13882 [3]	MIC P. aeruginosa ATCC 27853 [4]	MIC P. aeruginosa CCUG 59347 [4]	MIC E. coli NCTC 9001 [2]	Structure (SMILES)	further results
8 µg/mL (≈ 6.41 µM)	4 µg/mL (≈ 3.2 µM)	1 µg/mL (≈ 0.801 µM)	2 µg/mL (≈ 1.6 µM)	8 µg/mL (≈ 6.41 µM)	1 µg/mL (≈ 0.801 µM)	32 µg/mL (≈ 25.6 µM)	1 µg/mL (≈ 0.801 µM)	2 µg/mL (≈ 1.6 µM)	2 µg/mL (≈ 1.6 µM)						CCCCCCCCC1CNCC1C(=O)N[C@H](C(=O)N[C@@H](CCN)C(=O)N[C@H]1CCNC(=O)[C@H]([C@@H](C)O)NC(=O)[C@H](CCN)NC(=O)[C@H](CCN)NC(=O)[C@H](CC(C)C)NC(=O)[C@@H](Cc2ccc(-c3ccccc3)cc2)NC(=O)[C@H](CCN)NC1=O)C(C)O (single isomer, unassigned; isomer 1) [Example 7, trans-4-octylpyrrolidine-3-carbonyl polymyxin [D-(4-phenyl)Phe]-6] nonapeptide. Isomer 1]	MIC E. coli 059 [2]: 1 µg/mL (≈ 0.801 µM); MIC E. coli 060 [2]: 4 µg/mL (≈ 3.2 µM); MIC K. pneumoniae 062 [3]: 16 µg/mL (≈ 12.8 µM); MIC K. pneumoniae 064 [3]: 8 µg/mL (≈ 6.41 µM); MIC K. pneumoniae 066 [3]: 4 µg/mL (≈ 3.2 µM); MIC K. pneumoniae 067 [3]: 32 µg/mL (≈ 25.6 µM); MIC K. pneumoniae ATCC 4352 [3]: 1 µg/mL (≈ 0.801 µM)
32 µg/mL (≈ 27.8 µM)	16 µg/mL (≈ 13.9 µM)	0.125 µg/mL (≈ 0.109 µM)	2 µg/mL (≈ 1.74 µM)	16 µg/mL (≈ 13.9 µM)	0.5 µg/mL (≈ 0.434 µM)		1 µg/mL (≈ 0.869 µM)	1 µg/mL (≈ 0.869 µM)	2 µg/mL (≈ 1.74 µM)	0.25 µg/mL (≈ 0.217 µM)	0.25 µg/mL (≈ 0.217 µM)	0.25 µg/mL (≈ 0.217 µM)	0.5 µg/mL (≈ 0.434 µM)		CC(C)C[C@@H]1NC(=O)[C@@H](CC2CCCCC2)NC(=O)[C@H](CCN)NC(=O)[C@@H](NC(=O)[C@H](CN)NC(=O)[C@@H](NC(=O)CC(CN)c2ccc(Cl)cc2)C(C)O)CCNC(=O)[C@H]([C@@H](C)O)NC(=O)[C@H](CCN)NC(=O)[C@H](CCN)NC1=O (single isomer, unassigned; isomer 1) [Example 50, 4-amino-3-(4-chlorophenyl) butanoyl L-Thr-L-Dap-polymyxin [D-cyclohexylalanine]-6 heptapeptide. Isomer 1]	
64 µg/mL (≈ 55.7 µM)	64 µg/mL (≈ 55.7 µM)	0.25 µg/mL (≈ 0.218 µM)	4 µg/mL (≈ 3.48 µM)	16 µg/mL (≈ 13.9 µM)	0.25 µg/mL (≈ 0.218 µM)	16 µg/mL (≈ 13.9 µM)	1 µg/mL (≈ 0.871 µM)	1 µg/mL (≈ 0.871 µM)	1 µg/mL (≈ 0.871 µM)	0.25 µg/mL (≈ 0.218 µM)	0.25 µg/mL (≈ 0.218 µM)	0.125 µg/mL (≈ 0.109 µM)	0.25 µg/mL (≈ 0.218 µM)	0.06 µg/mL (≈ 0.0522 µM)	CC(C)C[C@@H]1NC(=O)[C@@H](CC2CCCCC2)NC(=O)[C@H](CCN)NC(=O)[C@@H](NC(=O)[C@H](CN)NC(=O)[C@@H](NC(=O)C(CCN)Cc2cccc(F)c2)C(C)O)CCNC(=O)[C@H]([C@@H](C)O)NC(=O)[C@H](CCN)NC(=O)[C@H](CCN)NC1=O (single isomer, unassigned; isomer 2) [Example 45, 4-amino-2-(3-fluorobenzyl) butanoyl L-Thr-L-Dap-polymyxin [D-cyclohexylalanine]-6 heptapeptide. isomer 2]	
															CC(C)C[C@@H]1NC(=O)[C@@H](CC2CCCCC2)NC(=O)[C@H](CCN)NC(=O)[C@@H](NC(=O)[C@H](CN)NC(=O)[C@@H](NC(=O)CC(CN)C2CCCCC2)C(C)O)CCNC(=O)[C@H]([C@@H](C)O)NC(=O)[C@H](CCN)NC(=O)[C@H](CCN)NC1=O (single isomer, unassigned; isomer 1) [Example 42, 4-amino-3-cyclohexylbutanoyl L-Thr-L-Dap-polymyxin [D-cyclohexylalanine]-6 heptapeptide. Isomer 1]	MIC A. baumanii 053 ([1]; strain 053): >64 µg/mL; MIC A. baumanii 056 ([1]; strain 056): 32 µg/mL (≈ 28.5 µM); MIC A. baumanii ATCC BAA-747 ([1]; strain ATCC BAA-747): 0.125 µg/mL (≈ 0.111 µM); MIC A. baumanii NCTC 13424 ([1]; strain NCTC 13424): 0.125 µg/mL (≈ 0.111 µM); MIC E. coli 058 ([2]; strain 058): 4 µg/mL (≈ 3.56 µM); MIC E. coli 061 ([2]; strain 061): 8 µg/mL (≈ 7.13 µM); MIC E. coli ATCC 25922 ([2]; strain ATCC 25922): 0.5 µg/mL (≈ 0.445 µM); MIC E. coli NCTC 9001 ([2]; strain NCTC 9001): 0.06 µg/mL (≈ 0.0535 µM); MIC K. pneumoniae 063 ([3]; strain 063): 32 µg/mL (≈ 28.5 µM); MIC K. pneumoniae 065 ([3]; strain 065): 2 µg/mL (≈ 1.78 µM); MIC K. pneumoniae ATCC 13882 ([3]; strain ATCC 13882): 0.25 µg/mL (≈ 0.223 µM); MIC P. aeruginosa 068 ([4]; strain 068): 2 µg/mL (≈ 1.78 µM); MIC P. aeruginosa 070 ([4]; strain 070): 4 µg/mL (≈ 3.56 µM); MIC P. aeruginosa ATCC 27853 ([4]; strain ATCC 27853): 0.5 µg/mL (≈ 0.445 µM); MIC P. aeruginosa CCUG 59347 ([4]; strain CCUG 59347): 0.5 µg/mL (≈ 0.445 µM)
		0.5 µg/mL (≈ 0.434 µM)	8 µg/mL (≈ 6.95 µM)		0.125 µg/mL (≈ 0.109 µM)					0.5 µg/mL (≈ 0.434 µM)	0.25 µg/mL (≈ 0.217 µM)	0.5 µg/mL (≈ 0.434 µM)	0.5 µg/mL (≈ 0.434 µM)		CC(C)C[C@@H]1NC(=O)[C@@H](CC2CCCCC2)NC(=O)[C@H](CCN)NC(=O)[C@@H](NC(=O)[C@H](CN)NC(=O)[C@@H](NC(=O)C(CCN)c2ccccc2Cl)[C@@H](C)O)CCNC(=O)[C@H]([C@@H](C)O)NC(=O)[C@H](CCN)NC(=O)[C@H](CCN)NC1=O (stereo partly drawn) [Example 76, 4-amino-2-(2-chlorophenyl) butanoyl L-Thr-L-Dap-polymyxin [D-cyclohexylalanine]-6 heptapeptide.] (X28-T[Dap][Dab][Dab][dCha]L[Dab][Dab]T; lactam 3-C)	
>64 µg/mL	32 µg/mL (≈ 27.2 µM)	0.125 µg/mL (≈ 0.106 µM)	2 µg/mL (≈ 1.7 µM)	16 µg/mL (≈ 13.6 µM)	0.125 µg/mL (≈ 0.106 µM)	64 µg/mL (≈ 54.5 µM)	4 µg/mL (≈ 3.41 µM)	4 µg/mL (≈ 3.41 µM)	16 µg/mL (≈ 13.6 µM)	0.06 µg/mL (≈ 0.0511 µM)	0.25 µg/mL (≈ 0.213 µM)	0.125 µg/mL (≈ 0.106 µM)	0.25 µg/mL (≈ 0.213 µM)	0.125 µg/mL (≈ 0.106 µM)	Cc1cc(C)cc(CO[C@@H](CCN)C(=O)N[C@H](C(=O)N[C@@H](CN)C(=O)N[C@H]2CCNC(=O)[C@H]([C@@H](C)O)NC(=O)[C@H](CCN)NC(=O)[C@H](CCN)NC(=O)[C@H](CC(C)C)NC(=O)[C@@H](CC3CCCCC3)NC(=O)[C@H](CCN)NC2=O)[C@@H](C)O)c1 [Example 90, (S)-4-amino-2-((3,5-dimethylbenzyl)oxy)butanoyl L-Thr-L-Dap-polymyxin [D-cyclohexylalanine-6]heptapeptide] (X16-T[Dap][Dab][Dab][dCha]L[Dab][Dab]T; lactam 3-C)	
															CC(C)C[C@@H]1NC(=O)[C@@H](CC2CCCCC2)NC(=O)[C@H](CCN)NC(=O)[C@@H](NC(=O)[C@H](CCN)NC(=O)[C@@H](NC(=O)CC(CN)c2ccccc2)[C@@H](C)O)CCNC(=O)[C@H]([C@@H](C)O)NC(=O)[C@H](CCN)NC(=O)[C@H](CCN)NC1=O (single isomer, unassigned; isomer 2) [Example 57, 4-amino-3-phenylbutanoyl polymyxin [D-cyclohexylalanine]-6 nonapeptide isomer 2]	MIC A. baumanii ATCC BAA-747 ([1]; strain ATCC BAA-747): 1 µg/mL (≈ 0.885 µM); MIC A. baumanii NCTC 13424 ([1]; strain NCTC 13424): 1 µg/mL (≈ 0.885 µM); MIC E. coli 058 ([2]; strain 058): 16 µg/mL (≈ 14.2 µM); MIC E. coli ATCC 25922 ([2]; strain ATCC 25922): 0.25 µg/mL (≈ 0.221 µM); MIC K. pneumoniae 065 ([3]; strain 065): 8 µg/mL (≈ 7.08 µM); MIC K. pneumoniae ATCC 13882 ([3]; strain ATCC 13882): 0.25 µg/mL (≈ 0.221 µM); MIC P. aeruginosa ATCC 27853 ([4]; strain ATCC 27853): 0.25 µg/mL (≈ 0.221 µM); MIC P. aeruginosa CCUG 59347 ([4]; strain CCUG 59347): 0.5 µg/mL (≈ 0.442 µM)
64 µg/mL (≈ 56.3 µM)	16 µg/mL (≈ 14.1 µM)	0.25 µg/mL (≈ 0.22 µM)	1 µg/mL (≈ 0.88 µM)	2 µg/mL (≈ 1.76 µM)	0.125 µg/mL (≈ 0.11 µM)	8 µg/mL (≈ 7.04 µM)	2 µg/mL (≈ 1.76 µM)	1 µg/mL (≈ 0.88 µM)	1 µg/mL (≈ 0.88 µM)	0.125 µg/mL (≈ 0.11 µM)	0.25 µg/mL (≈ 0.22 µM)	0.5 µg/mL (≈ 0.44 µM)	0.5 µg/mL (≈ 0.44 µM)	0.125 µg/mL (≈ 0.11 µM)	CC(C)CC1CNCC(C(=O)N[C@H](C(=O)N[C@@H](CCN)C(=O)N[C@H]2CCNC(=O)[C@H]([C@@H](C)O)NC(=O)[C@H](CCN)NC(=O)[C@H](CCN)NC(=O)[C@H](CC(C)C)NC(=O)[C@@H](CC3CCCCC3)NC(=O)[C@H](CCN)NC2=O)[C@@H](C)O)C1 (some centres unmarked) [Example 73] (X4-T[Dab][Dab][Dab][dCha]L[Dab][Dab]T; lactam 3-C)	
		0.25 µg/mL (≈ 0.217 µM)	2 µg/mL (≈ 1.74 µM)		0.5 µg/mL (≈ 0.434 µM)		2 µg/mL (≈ 1.74 µM)			0.25 µg/mL (≈ 0.217 µM)	0.5 µg/mL (≈ 0.434 µM)	0.5 µg/mL (≈ 0.434 µM)	0.5 µg/mL (≈ 0.434 µM)		CC(C)C[C@@H]1NC(=O)[C@@H](CC2CCCCC2)NC(=O)[C@H](CCN)NC(=O)[C@@H](NC(=O)[C@H](CN)NC(=O)[C@@H](NC(=O)C(CCN)c2cccc(Cl)c2)[C@@H](C)O)CCNC(=O)[C@H]([C@@H](C)O)NC(=O)[C@H](CCN)NC(=O)[C@H](CCN)NC1=O (stereo partly drawn) [Example 79, 4-Amino-2-(3-chlorophenyl) butanoyl L-Thr-L-Dap-polymyxin [D-cyclohexylalanine]-6 heptapeptide.] (X27-T[Dap][Dab][Dab][dCha]L[Dab][Dab]T; lactam 3-C)	
